Data as given in article PMC11313193, “Which Constituents Determine the Antioxidant Activity and Cytotoxicity of Garlic? Role of Organosulfur Compounds and Phenolics” (International Journal of Molecular Sciences, 2024).
Where two headings read alike, the source gives them in different places.

Experiments:
[1] = system: SKOV-3 ovarian cancer cells; assay: Cytotoxicity (Neutral Red), SKOV-3 cells; assay type: cell-based, human; conditions: 24 h exposure; for IC50: Homo sapiens, SK-OV-3, Neutral Red, read-out: IC50 SKOV-3; for Concentration at which viability of SKOV-3 cells was lowered: p < 0.05
Procedure: (§1) The PEO1 cells, SKOV-3 cells, and MRC-5 cells were grown at 37 °C and 5% CO2 in RPMI + GlutaMAX medium, McCoy’s 5A medium, and the DMEM + GlutaMAX medium, respectively. The media were supplemented with 10% heat-inactivated fetal calf serum and penicillin/streptomycin. The cell viability was evaluated using the Trypan Blue exclusion test.
(§2) In the cytotoxicity experiments, cells were grown in wells of sterile 96-well plates. The seeding density was 1 × 10^4 for SKOV-3 and MRC-5 cells and 1.5 × 10^4 for PEO1 cells. The cells were allowed to grow in the incubator for 24 h. Then, the medium was removed and new medium with an examined compound was added. The stock solutions of the compounds studied diluted with the appropriate cell medium were filtered before the addition to the cells using 0.22 µm filters. No more than 0.02% of DMSO was present in the media, and it had no discernible impact on the treated cells. Cells not exposed to any compound served as a control. After another 24 h incubation, the medium was gently aspirated, and the wells were added with 2% sterile Neutral Red solution (100 µL). The plates were then incubated (37 °C, 5% CO2) for one hour. The Neutral Red solution was aspirated, and the wells were washed two times with warm (37 °C) PBS. Subsequently, 100 µL of a permeabilization mixture (water/ethanol/glacial acetic acid, 50/49/1, v/v/v) was introduced to each well. The plates were shaken at 700 rpm for 20 min and absorbance was read at a wavelength of 540 nm against 620 nm.

[2] = Ferric reducing antioxidant power (FRAP) assay; conditions: 30 min at ambient temperature, pH 3.6, absorbance at 593 nm
Procedure: The method proposed by Benzie and Strain [91] was employed with a slight modification. Briefly, increasing volumes of solutions of the studied compounds were added to wells of a 96-well microplate prefilled with 200 μL of the working solution composed of 0.3 M acetate buffer, pH 3.6 (10 volumes), 10 mM 2,4,6-tris(2-pyridyl)-s-triazine (TPTZ), in 40 mM HCl (1 volume) and 20 mM FeCl3 (1 volume), was prepared immediately before use. After 30 min incubation at ambient temperature and the absorbance of the Fe^2+-TPTZ complex was read at 593 nm.
(§3) All assays were standardized with respect to Trolox. The antioxidant activity was calculated in each case as a ratio of the slope of the dependence of absorbance change on the concentration of a studied compound to the slope of the dependence of absorbance change of standard samples concerning Trolox on the concentration of Trolox. Antioxidant activities were expressed in moles of Trolox equivalents (TE)/mol of a studied compound, as described previously.

[3] = system: MRC-5 fibroblasts; assay: Cytotoxicity (Neutral Red), MRC-5 fibroblasts; assay type: cell-based, human; conditions: 24 h exposure; for IC50: Neutral Red, read-out: IC50 MRC-5
Procedure: as §1, §2

[4] = DPPH^● decolorization assay; conditions: 30 min at ambient temperature in the dark, absorbance at 517 nm
Procedure: The assay was performed as described in a previous article. Briefly, increasing volumes of solutions of the studied compounds were introduced to wells of a 96-well microplate, each with 200 μL of 0.3 mM DPPH^● solution in methanol. The reaction was allowed to proceed for 30 min at ambient temperature in the dark, and absorbance at 517 nm was read. The absorbance decrease was a measure of the antioxidant activity.
as §3

[5] = ABTS^● decolorization assay; conditions: 30 min incubation at room temperature, absorbance at 734 nm
Procedure: A modification of the ABTS^● decolorization assay was employed. Briefly, various volumes of solutions of the studied compounds were introduced to wells of a 96-well microplate, each prefilled 200 μL of ABTS^● solution. […] The drop in absorbance after 30 min incubation at room temperature was read as a measure of the antioxidant activity.
as §3

[6] = system: PEO1 ovarian cancer cells; assay: Cytotoxicity (Neutral Red), PEO1 cells; assay type: cell-based, human; conditions: 24 h exposure; for IC50: Homo sapiens, PEO1, Neutral Red, read-out: IC50 PEO1
Procedure: as §1, §2

[7] = system: A2780 human ovarian carcinoma cells; design: method as in PMID 24362328; conditions: prolonged treatment; cited from earlier work
[8] = system: microsomal lipid peroxidation; design: method as in PMID 16822206; conditions: cited from earlier work
[9] = system: SKOV-3 cells; design: method as in PMID 16675472; conditions: cited from earlier work
[10] = system: breast cancer MCF-7 cells; design: method as in PMID 32286702; conditions: 1 mM, 24 h exposure; cited from earlier work
[11] = system: breast cancer HCC-70 cells; design: method as in PMID 32286702; conditions: 1 mM, 24 h exposure; cited from earlier work

Compound | IC50 [1] | Antioxidant activity, FRAP [2] | IC50 ([3]; Homo sapiens, MRC5) | Antioxidant activity, DPPH^● Decolorization [4] | Antioxidant activity, ABTS^● Decolorization [5] | Concentration range with no significant decrease in viability of SKOV-3 cells [1] | Concentration at which viability of SKOV-3 cells was lowered [1] | Concentration range with no significant decrease in viability of PEO1 cells [6] | IC50 [6] | Concentration range with no significant decrease in viability of MRC-5 cells [3] | Concentration at which viability of MRC-5 cells was lowered ([3]; p < 0.05) | Concentration at which viability of PEO1 cells was lowered ([6]; p < 0.05) | Apoptosis of A2780 cells [7] | Migration and invasiveness of A2780 cells [7] | Proliferation of A2780 cells [7] | Termination of lipid peroxidation / prevention of induced microsomal lipid peroxidation [8] | Migration of SKOV-3 cells and their invasiveness [9] | Viability of MCF-7 cells (decreased down to) [10] | IC50 [3] | Viability of HCC-70 cells (decreased down to) [11]
C=CCSCC(N)C(=O)O (stereo in doubt) [S-Allyl-D-cysteine] | 421 µM | 0.0003 ± 0.0002 mol Trolox equivalents (TE)/mol compound | 578 µM | −0.020 ± 0.004 mol Trolox equivalents (TE)/mol compound | 0.070 ± 0.059 mol Trolox equivalents (TE)/mol compound |  |  |  |  |  |  |  |  |  |  |  |  |  |  | 
C=CCSCC=C [Allyl sulfide] | 243 µM | 0.0026 ± 0.0010 mol Trolox equivalents (TE)/mol compound | 163 µM | −0.006 ± 0.011 mol Trolox equivalents (TE)/mol compound | 0.016 ± 0.010 mol Trolox equivalents (TE)/mol compound | up to 100 µM | 200 to 500 µM | up to 100 µM | 257 µM | up to 100 µM | 200 to 500 µM |  |  |  |  |  |  |  |  | 
C=CCSSSCC=C [Diallyl trisulfide, diallyl trisulfide] | 154 µM | 0.0022 ± 0.0004 mol Trolox equivalents (TE)/mol compound |  | 0.005 ± 0.0003 mol Trolox equivalents (TE)/mol compound | 0.030 ± 0.006 mol Trolox equivalents (TE)/mol compound |  | 50 µM |  | 721 µM | 0 to 50 µM |  | 50 µM |  |  |  |  |  |  |  | 
C=CCSC[C@H](N)C(=O)O [SAC, S-allylcysteine] |  |  |  |  |  |  |  |  |  |  |  |  | provoked apoptosis | attenuated | inhibited proliferation | ineffective | inhibited |  |  | 
alliin |  | 0.0006 ± 0.0007 mol Trolox equivalents (TE)/mol compound |  | 0.004 ± 0.001 mol Trolox equivalents (TE)/mol compound | 0.035 ± 0.012 mol Trolox equivalents (TE)/mol compound |  |  |  |  |  |  |  |  |  |  | ineffective |  | ca. 75% | 321 µM | ca. 85%
